ChEMBL document CHEMBL1136215, “Potent quinoxaline-based inhibitors of PDGF receptor tyrosine kinase activity. Part 1: SAR exploration and effective bioisosteric replacement of a phenyl substituent” (Bioorg Med Chem Lett, 2003)

The compounds below were run on HASMC (assay: Inhibition of mitogenesis in human aortic smooth muscle cells(HASMC)).
Assay type: functional, cell-based

SMILES | IC50 [nM]
COc1cc2ncc(N[C@@H]3CC4CCC3C4)nc2cc1OC (stereo in doubt; 38) | 61
COc1cc2ncc(N[C@H]3CC4CCC3C4)nc2cc1OC (some centres not stated) | 585
COc1cc2ncc(O[C@H]3CC4CCC3C4)nc2cc1OC (mixture of isomers) | 395

The compounds below were run against T1, Platelet-derived growth factor receptor (Homo sapiens, UniProt P09619+P16234) (assay: Inhibition of Platelet-derived growth factor receptor).
Assay type: protein-complex assay

SMILES | IC50 [nM]
COc1cc2cc(-c3ccsc3)cnc2cc1OC | 461
c1ccc(Nc2cnc3ccccc3n2)cc1 | 5100
COc1cc2ncc(N[C@@H]3CC4CCC3C4)nc2cc1OC (mixture of isomers) | 879
COc1cc2cc(OC3CCCCC3)cnc2cc1OC | 601
COc1cc2ncc(NC3CCCC3)nc2cc1OC | 128
COc1cc2ncc(N[C@H]3CC4CCC3C4)nc2cc1OC (some centres not stated) | 742
COc1cc2ncc(O[C@@H]3CC4CCC3C4)nc2cc1OC (mixture of isomers) | 265
COc1cc2ncc(SC3CCCC3)nc2cc1OC | 226
COc1ccc2nc(Nc3ccccc3)cnc2c1 | 1600
Cc1cc2ncc(Nc3ccccc3)nc2cc1C | 340
COc1cc2ncc(OC3CCCC3)nc2cc1OC | 159

Other lines, results leading:

IC50 [nM] | SMILES
124 | COc1cc2ncc(NC3CCCCC3)nc2cc1OC
96 | COc1cc2cc(NC3CCCCC3)cnc2cc1OC
92 | COc1cc2ncc(NCc3ccccc3)nc2cc1OC
65 | COc1cc2ncc(OC3CCCCC3)nc2cc1OC
42 | COc1ccc2ncc(Nc3ccccc3)nc2c1
41 | COc1cc2ncc(NC3CCCC(C)C3)nc2cc1OC (configuration not stated)
25 | COc1cc2ncc(O[C@H]3CC4CCC3C4)nc2cc1OC (mixture of isomers)
20 | COc1cc2ncc(NC3CC4CCC3C4)nc2cc1OC (racemic)
15 | COc1cc2ncc(N[C@@H]3CC4CCC3C4)nc2cc1OC (stereo in doubt; 38)
6 | COc1cc2ncc(Nc3ccccc3)nc2cc1OC
4 | COc1cc2ncc(Nc3cccc(Cl)c3)nc2cc1OC

What follows are compounds tested against T1, Platelet-derived growth factor receptor (assay: Inhibition of Platelet-derived growth factor receptor at 1 uM).
Assay type: protein-complex assay

SMILES | inhibition [%]
COc1cccc2nc(Nc3ccccc3)cnc12 | 5
COc1cc2ncc(N(C)c3ccccc3)nc2cc1OC | 0
COc1cccc2ncc(Nc3ccccc3)nc12 | 11
COc1cc2ncc(NCC3CCCCC3)nc2cc1OC | 12
COc1cc2ncc(SC3CCCCC3)nc2cc1OC | 0
COc1cc2ncc(Nc3ccc(Cl)cc3)nc2cc1OC | 8
CCC1CCC(Oc2cnc3cc(OC)c(OC)cc3n2)CC1 (configuration not stated) | 16
